Three compounds from publication PMC9654711, “Neuroprotective Action of Coumarin Derivatives through Activation of TRKB-CREB-BDNF Pathway and Reduction of Caspase Activity in Neuronal Cells Expressing Pro-Aggregated Tau Protein” (International Journal of Molecular Sciences, 2022) can be followed below.

The nature of experiment [1]: DPPH free radical-scavenging assay. Conditions: compounds tested 10–80 μM; DPPH 100 µM; linear interpolation. The procedure: The potential free radical-scavenging activity of test compounds was assayed using stable free radical 1,1-diphenyl-2-picrylhydrazyl (DPPH) (Sigma-Aldrich). Briefly, kaempferol, LM-031 or LMDS-1 to -4 (10–80 µM) was added to DPPH (100 µM in 99% ethanol). The solution was vortexed for 15 s, left for 30 min at room temperature, the mixture was transferred to a 96-well UV-transparent microplate and the absorbance at 517 nm was measured using a Multiskan^TM GO microplate spectrophotometer (Thermo Fisher Scientific, Waltham, MA, USA). Radical-scavenging activity was calculated using the equation: 1 − (absorbance of sample/absorbance of control) × 100%, and EC50 estimated using the linear interpolation method.

Experiment [2] deals with ΔK280 tauRD-DsRed SH-SY5Y cells. Put plainly: Neurite outgrowth in cells infected with TRKB-specific or scrambled shRNA. Conditions: scrambled shRNA; 10 µM. It is filed as cell-based, human. The procedure:
(§1) As described, ∆K280 tauRD-DsRed SH-SY5Y cells were seeded in a 24-well plate (5 × 10^4/well) with retinoic acid addition on day 1, treated with tested compounds (10 µM) and ∆K280 tauRD-DsRed expression was induced with doxycycline (2 μg/mL) on day 2. On day 8, after being fixed in 4% paraformaldehyde for 15 min, permeabilized in 0.1% Triton X-100 for 10 min and blocked in 3% bovine serum albumin (BSA) for 20 min, the cells were stained with TUBB3 (neuronal class III β-tubulin) primary antibody (1:1000; BioLegend, San Diego, CA, USA) at 4 °C overnight, followed by goat anti-rabbit Alexa Fluor® 555 secondary antibody (1:1000; Molecular probes) at room temperature for 2 h, with 4′-6-diamidino-2-phenylindole (DAPI, 0.1 µg/mL; Sigma-Aldrich) included for nuclei staining. Neuronal images were captured using the high-content analysis system as described. Neurite total length (μm), processes (primary neurite extensions projecting directly from the cell body) and branching (points at which primary neurites bifurcated) were analyzed using Neurite Outgrowth Application Module (MetaXpress; Molecular Devices). Around 5000 cells were analyzed in each of three independent experiments for each sample.
Lentiviral short hairpin RNA (shRNA) targeting TRKB (TRCN0000002243, TRCN0000002245 and TRCN0000002246) and a negative control scrambled (TRC2.Void, ASN000001) from National RNAi Core Facility, IMB/GRC, Academia Sinica, Taipei, Taiwan were applied to knock down TRKB expression in ∆K280 tauRD-DsRed SH-SY5Y cells. On day 1, cells were plated on 6-well (for protein analysis) or 24-well (for neurite outgrowth analysis) plates in the presence of retinoic acid as described. On day 2, the cells were infected with lentivirus (multiplicity of infection of 3 for each shRNA) in medium containing polybrene (8 µg/mL; Sigma-Aldrich) to increase the efficiency of viral infection. […] On day 9, the cells were collected for TRKB protein analysis or analyzed for neurite outgrowth as described.

For experiment [3] the test system is unchanged. The experiment in a line: High-content analysis of neurite outgrowth. The format is cell-based, human. Conditions: 10 µM; for Neurite branching: induced untreated 0.87, uninduced 0.99; for Neurite length: induced untreated 27.2 μm, uninduced 30.9 μm. The procedure: as §1
Experiment [4] deals with T1, E. coli-expressed ΔK280 tauRD protein (Homo sapiens, UniProt P10636, DEL597-597).
T1 construct: assessed by using E. coli-expressed ΔK280 tauRD protein; made in house; host or cells: E. coli
T1 sequence (P10636 with tags, fused parts or gaps DEL597-597): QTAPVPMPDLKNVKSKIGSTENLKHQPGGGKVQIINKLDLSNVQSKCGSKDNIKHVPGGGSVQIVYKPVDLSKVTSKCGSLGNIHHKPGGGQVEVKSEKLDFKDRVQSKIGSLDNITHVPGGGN
Put plainly: Anti-ΔK280 tauRD aggregation assay (thioflavin T). It is filed as biochemical. The following applies: compounds tested 1–10 μM, 20 μM protein, 48 h, linear interpolation, read-out: EC50 for ΔK280 tauRD aggregation inhibition. The procedure: Thioflavin T is widely used to visualize and quantify the presence of misfolded amyloid protein aggregates in vitro [74]. The tau aggregation inhibiting potential of Congo red, LM-031 and LMDS-1 to -4 was assessed by using E. coli-expressed ΔK280 tauRD protein [28]. Briefly, purified ΔK280 tauRD protein (20 μM) was incubated with Congo red or coumarin compounds (1–10 μM) in 150 mM NaCl and 20 mM Tris-HCl pH8.0, at 37 °C with shaking for 48 h to form aggregates. Then, thioflavin T (final 5 μM; Acros Organics, Geel, Belgium) was added and incubated for 25 min at room temperature. Fluorescence intensity of samples was recorded at excitation/emission wavelengths of 420/485 nm using an FLx800 microplate reader (BioTek, Winooski, VT, USA). The half maximal effective concentration (EC50) values were calculated by using a linear interpolation method.

Experiment [5] can be described thus: Oxygen radical antioxidant capacity (ORAC) assay. Conditions: compound at 100 μM. On the procedure:
In addition, an oxygen radical antioxidant capacity (ORAC) assay was performed using an OxiSelect™ kit according to the manufacturer’s instruction (Cell Biolabs, San Diego, CA, USA). Briefly, Trolox standards (2.5–50 μM) and samples (4–100 μM) were diluted with 50% acetone. Blank (50% acetone), standards and samples were mixed with fluorescein and incubated at 37 °C for 30 min. Following the free radical initiator 2,2′-azobis(2-methylpropionamidine) dihydrochloride (AAPH), the produced peroxyl radicals (ROO•) quench the fluorescent probe over time. Antioxidants present in the assay block the peroxyl radical oxidation of the fluorescent probe. The course of the reaction was recorded for 60 min, with one measurement every five minutes using a BioTek FLx800 microplate reader. The excitation and emission wavelengths were set at 480 nm and 520 nm, respectively. To quantify the oxygen radical antioxidant activity in a sample, the area under the curve (AUC) for blank, standard and samples was calculated. After subtraction of the blank, the equivalent Trolox concentrations of samples were expressed based on the Trolox standard curve.

Usually pEC50 stands for the EC50 on a negative log10 scale, so that one unit is a factor of ten.

Each structure is given as a SMILES string. pEC50: −log10 of the molar value.

As for `O=C(c1ccccc1)c1cc2c(O)cccc2oc1=O` [LM-031, 3-benzoyl-5-hydroxychromen-2-one], the pEC50 in experiment [1] was 4.03; in experiment [4], 4.44. In addition, the values for the Neurite branching in experiment [2] and in experiment [3] were 1.05–1.07 and 1.00–1.06, respectively. Moreover, the Neurite length in experiment [3] was 30.3–31.5 μm. Further, the “Oxygen radical absorbance capacity, activity equivalent to Trolox” value (shortened to “Oxygen radical absorbance capacity”) in experiment [5] is listed as 51 μM Trolox.

On to `CCOc1ccc2cc(C(=O)c3ccccc3)c(=O)oc2c1` [LMDS-1], for which the negative logarithm of the EC50 (pEC50) in experiment [1] was 3.91; in experiment [4], 4.08. Moreover, the Neurite branching in experiment [2] is listed as 1.05–1.07; in experiment [3] it was 1.00–1.06. Besides, in experiment [3], the Neurite length was 30.3–31.5 μm. Moreover, the “Oxygen radical absorbance capacity” value in experiment [5] is reported as 10 μM Trolox.

In the case of `O=C(c1ccccc1)c1cc2ccc(O)cc2oc1=O` [LMDS-2], the results for the negative-log EC50 (pEC50) in experiment [1] and in experiment [4] were 3.88 and 5.10, respectively. In addition, the Neurite branching was 1.05–1.07 in experiment [2] and 1.00–1.06 in experiment [3]. In experiment [3], the Neurite length is recorded as 30.3–31.5 μm. Also, the “Oxygen radical absorbance capacity” value in experiment [5] is listed as 15 μM Trolox.
